# Results reported in article PMC9400994, “3,4,5‐Trihydroxypiperidine Based Multivalent Glucocerebrosidase (GCase) Enhancers” (Chembiochem, 2022).
# Legend:
# [1] = molecular target: T1, GCase (Homo sapiens, UniProt P04062); design: method as in earlier work; conditions: 100 μM; ref 20a; cited from earlier work
# T1 sequence (P04062 40-536): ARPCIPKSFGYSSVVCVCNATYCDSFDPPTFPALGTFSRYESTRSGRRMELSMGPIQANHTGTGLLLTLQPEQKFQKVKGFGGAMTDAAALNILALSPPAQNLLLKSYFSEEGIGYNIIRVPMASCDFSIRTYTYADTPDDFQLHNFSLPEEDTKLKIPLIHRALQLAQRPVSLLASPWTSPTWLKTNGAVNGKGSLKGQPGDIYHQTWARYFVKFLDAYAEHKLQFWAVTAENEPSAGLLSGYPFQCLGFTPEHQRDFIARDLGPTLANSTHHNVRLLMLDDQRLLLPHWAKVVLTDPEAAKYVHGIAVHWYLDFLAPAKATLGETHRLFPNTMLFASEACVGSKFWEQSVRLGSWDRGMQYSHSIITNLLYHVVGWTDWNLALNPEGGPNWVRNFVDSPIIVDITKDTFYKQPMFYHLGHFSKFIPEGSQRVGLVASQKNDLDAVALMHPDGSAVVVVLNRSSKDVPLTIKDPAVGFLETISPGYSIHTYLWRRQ
# [2] = molecular target: T1, GCase; assay: Inhibitory activity towards human GCase in leukocyte extracts from healthy donors; type: biochemical; design: screened towards GCase from leukocytes isolated from healthy donors (controls); Isolated leukocytes were disrupted by sonication; from tissue; host or cells: pooled human leukocytes from healthy donors, sonicated homogenate; conditions: for IC50: GCase from leukocytes of healthy donors, 4-methylumbelliferyl-β-D-glucoside 3.33 mM; for inhibition at 1000 µM: human leukocyte extracts, inhibitor 1 mM, 37 °C, read-out: GCase inhibition (percentage inhibition); for rp/n (multivalent effect): relative potency divided by number of binding units n; for rp (relative potency): with respect to monovalent compound 18
# Method: The compounds were screened in extracts from a pool of human leucocytes isolated from healthy donors (1 mM inhibitor concentration, 37 °C and optimal pH conditions, see Experimental Section). […] Isolated leukocytes were disrupted by sonication, and a micro BCA protein assay kit (Sigma‐Aldrich) was used to determine the total protein amount for the enzymatic assay, according to the manufacturer instructions. Enzyme activity was measured in a flat‐bottomed 96‐well plate. […] Percentage GCase inhibition is given with respect to the control (without iminosugar). Data are mean ± SD (n=3).
# Data are mean ± SD (n=3). Data obtained were fitted using the Origin Microcal program (see the Supporting Information file for further details). […]
# leukocytes isolated from healthy donors (controls). Isolated leukocytes were disrupted by sonication, and a micro BCA protein assay kit (Sigma –Aldrich) was used to determine the total protein amount for the enzymatic assay, according to the manufactu rer instructions. Enzyme activity was measured in a flat - […]
# GCase inhibition is given with respect to the control (without iminosugar). Data are mean ± SD (n=3).
# The corresponding calculated
# IC50 determination: The IC50 values of inhibitors against GCase were determined by measuring the initial […]
# Data are mean ± SD (n=3). Data obtained were fitted to the following equation using the Origin Microcal program. where Vi/Vo, represent the ratio between the activity measured in the presence of the inhibitor (Vi) and the activity of the control without the inhibitor (V0), “x” the inhibitor concentration, Max and Min, the maximal and minimal enzymatic activity observed, respectively.
IC50 [2],inhibition at 1000 µM [2],rp/n (multivalent effect) [2],rp (relative potency) [2],Structure (SMILES),Increase of enzyme activity [1]
–,–,–,–,CCCCCCCCN1CC(O)C(O)C(O)C1 (stereo not shown),1.25 fold
27 ± 3 µM,100%,6,19,NC(COCc1cn(CCCCCCCCCN2C[C@@H](O)C(O)[C@H](O)C2)nn1)(COCc1cn(CCCCCCCCCN2C[C@@H](O)C(O)[C@H](O)C2)nn1)COCc1cn(CCCCCCCCCN2C[C@@H](O)C(O)[C@H](O)C2)nn1 [Compound 11],–
9 ± 4 µM,–,14,56,OC1[C@H](O)CN(CCCCCCCCCn2cc(COCC(COCc3cn(CCCCCCCCCN4C[C@@H](O)C(O)[C@H](O)C4)nn3)(COCc3cn(CCCCCCCCCN4C[C@@H](O)C(O)[C@H](O)C4)nn3)COCc3cn(CCCCCCCCCN4C[C@@H](O)C(O)[C@H](O)C4)nn3)nn2)C[C@H]1O [Compound 13],–
6 ± 2 µM,–,14,83,OC1[C@H](O)CN(CCCCCCCCCn2cc(COC[C@@H](OCc3cn(CCCCCCCCCN4C[C@@H](O)C(O)[C@H](O)C4)nn3)[C@@H](OCc3cn(CCCCCCCCCN4C[C@@H](O)C(O)[C@H](O)C4)nn3)[C@H](OCc3cn(CCCCCCCCCN4C[C@@H](O)C(O)[C@H](O)C4)nn3)[C@@H](COCc3cn(CCCCCCCCCN4C[C@@H](O)C(O)[C@H](O)C4)nn3)OCc3cn(CCCCCCCCCN4C[C@@H](O)C(O)[C@H](O)C4)nn3)nn2)C[C@H]1O [Compound 14],–
11 ± 3 µM,–,8,45,O=C(CCCCC(=O)NC(COCc1cn(CCCCCCCCCN2C[C@@H](O)C(O)[C@H](O)C2)nn1)(COCc1cn(CCCCCCCCCN2C[C@@H](O)C(O)[C@H](O)C2)nn1)COCc1cn(CCCCCCCCCN2C[C@@H](O)C(O)[C@H](O)C2)nn1)NC(COCc1cn(CCCCCCCCCN2C[C@@H](O)C(O)[C@H](O)C2)nn1)(COCc1cn(CCCCCCCCCN2C[C@@H](O)C(O)[C@H](O)C2)nn1)COCc1cn(CCCCCCCCCN2C[C@@H](O)C(O)[C@H](O)C2)nn1 [Compound 15],–
500 ± 50 µM,~70%,–,–,OCc1cn(CCCCCCCCCN2C[C@@H](O)C(O)[C@H](O)C2)nn1 [Compound 18],–
